Source: patent US10351500B2, “Method of using of dihydro-resveratrol or its stilbenoid derivatives and/or chemical variants as antimicrobial agents” (Hong Kong Baptist University, priority 2015, dated 2019)

Assays:
[1] = tested on: HCT-116 human colorectal carcinoma xenograft tumor; test: HCT-116 nude mouse xenograft model; format: in vivo, BALB/c nude mice; conditions: i.p. every other day, 5-FU 25 mg/kg, D-res 100 mg/kg
Description: All animal studies were approved and performed according to Animal Care and Use Guidelines of the Animal Ethics Committee at Hong Kong Baptist University. BALB/c nude mice, SPF class, male, 6-8 weeks old, were purchased from BioLASCO, Taiwan. Before the xenograft experiment, the mice were acclimatized to SPF class laboratory conditions for a week.
HCT-116 cells in logarithmic growth phase were collected by trypsinization. After centrifugation and rinsing, cells were re-suspended in serum-free DMEM medium at 3×10^7 cells/mL. Nude mice were skin disinfected with 75% medical ethanol, subcutaneously injected with 100 μL of the HCT-116 cell suspension using a 25-G syringe to their left flank. The same procedure was repeated for the tumor cell injection to the right flank.
Seven days after tumor cell injection, 24 mice with tumor volumes of 32 mm^3 to 178 mm^3 were randomly assigned into 3 groups; the average initial tumor volumes in each group of mice were 78.04±7.76 mm^3 (vehicle, 8 mice), 78.76±9.40 mm^3 (5-FU, 8 mice), 78.01±7.75 mm^3 (D-res, 8 mice) respectively.
Vehicle solution: 2.5% Ethanol and Cremphor EL (1:1 v/v) dissolved in physiological saline.
5-FU solution: 5-FU powder was dissolved in 2.5% Ethanol and Cremphor EL to a concentration of 5 mg/mL.
D-res solution: Dihydro-resveratrol powder was dissolved in 2.5% Ethanol and Cremphor EL solution to a concentration of 20 mg/mL.
Vehicle group (n=8): 2.5% Ethanol and Cremphor EL solution was intraperitoneally injected every other day for 21 days.
5-FU group (n=8): 5-FU solution was given to mice at 25 mg/kg by intraperitoneal injection every other day for 21 days.
D-res group (n=8): D-res solution was given to mice at 100 mg/kg by intraperitoneal injection every other day for 21 days. This is equivalent to a dosage of no less than 8.13 mg/kg of bodily weight in human.

[2] = ABTS radical decolorization assay (antioxidant capacity); format: biochemical; conditions: 15 min, 734 nm
[3] = tested on: Trichophyton mentagrophytes; test: anti-fungal growth inhibition, T. mentagrophytes; format: cell-based; conditions: T. mentagraphytes; for inhibition at 25 µM / inhibition at 50 µM / inhibition at 100 µM: Trichophyton mentagrophytes, 168 h, one week, 30° C., OD 510 nm; for inhibition at 25 µM: read-out: Inhibition rate (25 μM); for inhibition at 50 µM: read-out: Inhibition rate (50 μM); for inhibition at 100 µM: read-out: Inhibition rate (100 μM)
Method: (§1) Evaluation of anti-fungal activity. In a single well of the 96-well microplate, 10 μL of the testing compound is added into 190 μL of growth medium (Difco™ YM) containing an overnight culture of Trichophyton rubrum or Trichophyton mentagrophytes at a density of approximately 5×10^5 CFU. The testing compounds include dihydro-resveratrol and DR1 to DR11. Wells incubated with 10 μL 0.5% DMSO only (i.e. no testing compound) are served as the experimental control of fungal growth whilst those incubated with growth medium only (i.e. no fungi) are served as the negative control. […] The percentage of growth inhibition of T. mentagrophytes by the different concentrations of testing compounds is shown in Table 10 whilst the percentage of growth inhibition of T. rubrum is shown in Table 11. The images of T. mentagrophytes culture are captured post treatment of dihydro-resveratrol (100 μM) and DR8 (100 μM) when compared to the growth of experimental control and negative control (FIG. 30).

Trichophyton rubrum = test: anti-fungal growth inhibition, T. rubrum; format: cell-based; conditions: T. rubrum; for inhibition at 25 µM / inhibition at 50 µM / inhibition at 100 µM: Trichophyton rubrum, 168 h, one week, 30° C., OD 510 nm; for inhibition at 25 µM: read-out: Inhibition rate (25 μM); for inhibition at 50 µM: read-out: Inhibition rate (50 μM); for inhibition at 100 µM: read-out: Inhibition rate (100 μM)
Method: as §1

Streptococcus mutans = test: anti-bacterial growth inhibition, S. mutans; format: cell-based; conditions: S. mutans; for inhibition at 25 µM / inhibition at 50 µM / inhibition at 100 µM: Streptococcus mutans, 10 hours, 30° C., OD 600 nm; for inhibition at 25 µM: read-out: Inhibition rate (25 μM); for inhibition at 50 µM: read-out: Inhibition rate (50 μM); for inhibition at 100 µM: read-out: Inhibition rate (100 μM)
Method: (§2) Evaluation of anti-bacterial activity. In a single well of the 96-well microplate, 10 μL of the testing compound is added into 190 μL of growth medium growth medium (BBL™ Brain Heart Infusion) containing an overnight culture of Streptococcus mutans or Streptococcus sobrinus at a density of approximately 5×10^5 CFU. The testing compounds include dihydro-resveratrol and DR1 to DR11. Wells incubated with 10 μL 0.5% DMSO only (i.e. no testing compound) are served as the experimental control of bacterial growth whilst those incubated with growth medium only (i.e. no bacteria) are served as the negative control. […] The percentage of growth inhibition of S. mutans by the different concentrations of testing compounds is shown in Table 12 whereas the percentage of growth inhibition of S. sobrinus is shown in Table 13. The images of S. mutans culture are captured post treatment of dihydro-resveratrol (100 μM) and DR8 (100 μM) when compared to the growth of experimental control and negative control (FIG. 31).

Streptococcus sobrinus = test: anti-bacterial growth inhibition, S. sobrinus; format: cell-based; conditions: S. sobrinus; for inhibition at 25 µM / inhibition at 50 µM / inhibition at 100 µM: Streptococcus sobrinus, 10 hours, 30° C., OD 600 nm; for inhibition at 25 µM: read-out: Inhibition rate (25 μM); for inhibition at 50 µM: read-out: Inhibition rate (50 μM); for inhibition at 100 µM: read-out: Inhibition rate (100 μM)
Method: as §2

SMILES | Trolox equivalent (mg), antioxidant capacity [2] | inhibition at 25 µM [3] | inhibition at 50 µM [3] | inhibition at 100 µM [3] | inhibition at 25 µM (Trichophyton rubrum) | inhibition at 50 µM (Trichophyton rubrum) | inhibition at 100 µM (Trichophyton rubrum) | inhibition at 25 µM (Streptococcus mutans) | inhibition at 50 µM (Streptococcus mutans) | inhibition at 100 µM (Streptococcus mutans) | inhibition at 25 µM (Streptococcus sobrinus) | inhibition at 50 µM (Streptococcus sobrinus) | inhibition at 100 µM (Streptococcus sobrinus) | also measured
O=c1[nH]cc(F)c(=O)[nH]1 [Compound 5-FU, fluorouracil, reference compound] |  |  |  |  |  |  |  |  |  |  |  |  |  | Tumor Volume (mm^3) ([1]; Day 1 (initial)): 78.76 ± 9.40 mm^3; Tumor Volume (mm^3) ([1]; Day 4): 128.05 ± 12.25 mm^3; Tumor Volume (mm^3) ([1]; Day 7): 187.75 ± 21.56 mm^3; Tumor Volume (mm^3) ([1]; Day 10): 286.6 ± 28.89 mm^3; Tumor Volume (mm^3) ([1]; Day 13): 419.1 ± 45.77 mm^3; Tumor Volume (mm^3) ([1]; Day 16): 489.8 ± 160.66 mm^3; Tumor Volume (mm^3) ([1]; Day 19): 514.17 ± 160.66 mm^3; Tumor Volume (mm^3) ([1]; Day 21): 583.6 ± 160.66 mm^3; Tumor Volume (mm^3) ([1]; Day 22): 655.69 ± 160.66 mm^3; Tumor weight ([1]; treated for 21 days): 0.68 ± 0.08 g
CCOC(=O)COc1ccc(CCc2cc(OCC(=O)OCC)cc(OCC(=O)OCC)c2)cc1 [DR1] | 105.736 mg | 4.33% | 11.2% | 36.4% | 3.25% | 1.15% | 22.6% | 2.31% | 8.55% | 4.78% | 9.96% | 27.7% | 14.2% | 
CCCOc1ccc(CCc2cc(OCCC)cc(OCCC)c2)cc1 [DR2] | 30.178 mg | 4.72% | 9.81% | 33.7% | 14.1% | 18.3% | 37.8% | 0.04% | 3.62% | 3.65% | 6.33% | 19.9% | 19% | 
C=CCOc1ccc(CCc2cc(OCC=C)cc(OCC=C)c2)cc1 [DR3] | 119.325 mg | 4.64% | 4.77% | 20.1% | 4.55% | 4.25% | 22.3% | 4.18% | 2.61% | 7.05% | 11.7% | 24.2% | 21.1% | 
CCCC(=O)Oc1ccc(CCc2cc(OC(=O)CCC)cc(OC(=O)CCC)c2)cc1 [DR4] | 94.277 mg | 6.03% | 10.4% | 32.6% | 11.2% | 16.6% | 36.1% | 6.64% | 3.99% | 6.35% | 7.35% | 20.6% | 18.1% | 
O=C(Oc1ccc(CCc2cc(OC(=O)c3ccc(Cl)cc3)cc(OC(=O)c3ccc(Cl)cc3)c2)cc1)c1ccc(Cl)cc1 [DR5] | 0 mg | 3.01% | 6.93% | 14.1% | 0.71% | 4.25% | 5.78% | 2.67% | 8.35% | 2.22% | 12.2% | 26.2% | 18.6% | 
COc1ccc(C(=O)Oc2ccc(CCc3cc(OC(=O)c4ccc(OC)cc4)cc(OC(=O)c4ccc(OC)cc4)c3)cc2)cc1 [DR6] | 0 mg | 3.33% | 8.01% | 21.6% | 5.81% | 2.49% | 20.9% | 6.52% | 4.36% | 5.96% | 5.99% | 15.7% | 7.54% | 
O=C(Oc1ccc(CCc2cc(OC(=O)c3ccccc3)cc(OC(=O)c3ccccc3)c2)cc1)c1ccccc1 [DR7] | 0 mg | 3.79% | 0.44% | 18.6% | 3.06% | 6.17% | 11.6% | 10.1% | 1.55% | 2.48% | 6.33% | 14.2% | 12.5% | 
C=CC(=O)Oc1ccc(CCc2cc(OC(=O)C=C)cc(OC(=O)C=C)c2)cc1 [DR8] | 15.893 mg | 83.1% | 80.7% | 78.8% | 78.9% | 77.8% | 77.7% | 17.1% | 17.6% | 68% | 22.7% | 43.8% | 79.3% | inhibitory effect among the testing compounds ([3]; one-week incubation): highest inhibitory effect; inhibitory effect among the testing compounds (Trichophyton rubrum; one-week incubation): highest inhibitory effect; inhibitory effect among the testing compounds (Streptococcus mutans; 10-hour incubation): highest inhibitory effect; inhibitory effect among the testing compounds (Streptococcus sobrinus; 10-hour incubation): highest inhibitory effect
O=C(Oc1ccc(CCc2cc(OC(=O)C3CCCC3)cc(OC(=O)C3CCCC3)c2)cc1)C1CCCC1 [DR9] | 0 mg | 2.19% | 14.7% | 25.9% | 7.05% | 2.57% | 1.5% | 0.68% | 6.36% | 8.39% | 14.3% | 0.13% | 9.87% | 
